Laboratory results: patent publication US7772246B2 (Pfizer Inc., priority 2007, dated 2010)
pIC50: −log10 of the molar value.

Molecular target: T1, b-Raf (Homo sapiens, UniProt P15056, V600E)
T1 construct: endogenous in cells; host or cells: A2058 human melanoma cells
Test: Raf cellular assay (phospho-Mek1/2 ELISA in A2058 cells)
Format: cell-based
Conditions: Table 3; human melanoma A2058 cells (b-Raf mutation), Mek1/2 Ser217/221 phosphorylation, 1 hour incubation; read-out: pMEK IC50
Protocol: Compounds of the present invention were evaluated for potency against b-Raf using a cellular assay as follows. The activity of Raf kinases in cells is determined by measuring the level of phosphorylation of Mek1/2 at serine 217/221, the site phosphorylated by Raf kinases in vivo. Mek1/2 Ser phosphorylation is measured using anti-phospho-Mek1/2 antibodies (Cell Signaling #9121) in an ELISA format.
Healthy growing human melanoma A2058 cells (harboring a b-Raf mutation) are used for the assay. A2058 cells are grown in 10% FBS DMEM medium. When the cells are near 85%+confluence, the cells are rinsed with PBS once and trypsinized with trypsin/EDTA for 3 minutes. The cells are resuspended in 10% FBS DMEM and are centrifuged down at 1000 rpm for 5 minutes. The cells are resuspended in 10% FBS DMEM and counted on a cell counter. The cells are seeded at 50,000 cells/well in a volume of 100 μL/well in 10% FBS DMEM in a 96 well flat-bottom plate. The negative control wells receive only 100 μL of 10% FBS DMEM medium without cells. The plate is incubated overnight in a cell culture incubator with 5% CO2 at 37° C.
On day 2, testing compounds are prepared in 10% FBS DMEM medium and serially diluted at 1:3 for 11 test concentrations. Each concentration of the compounds is tested in duplicate. The compound solutions are added at 25 μL/well to the corresponding wells in the cell plate, and 25 μL/well of the vehicle (0.5% DMSO in 10% FBS DMEM) is added to the negative control wells (no cells) and the positive control wells (cells without compounds). The plate is incubated for 1 hour in a cell culture incubator with 5% CO2 at 37° C. After 1 hour of incubation, the medium is removed, 100 μL/well of cell lysis buffer is added into the cell plate, and the plate is shaken for 15 minutes at room temperature. After 15 minutes, the cell lysates are transferred to an ELISA plate (pre-coated with anti-Mek1 anti-body, Cell Signaling #2352), and the plate is incubated with gentle shaking for 2 hours at room temperature. After 2 hours, the contents of the wells are aspirated and the wells are washed 4 times with wash buffer. 100 μL of phospho-Mek1/2 detection antibody (Cell Signaling #9121) is added into each well and the plate is incubated with gentle shaking for 1 hour at room temperature. After 1 hour, the wells are aspirated and washed 4 times with wash buffer. 100 μL of anti-rabbit IgG HRP-linked antibody (Cell Signaling #7074) is added to each well, and the plate is incubated with gentle shaking for 1 hour at room temperature. After 1 hour, the contents of the wells are aspirated and the wells are washed 4 times with wash buffer. 100 μL of TMB substrate solution (Sigma #T0440) is added into each well, and the plate is incubated with gentle shaking at room temperature for 10 to 20 minutes. After color development, 100 μL of stop solution (1N hydrochloric acid) is added to each well to terminate color development. The plate is read at 450 nm on an ELISA plate reader.

T1 sequence (P15056 whole entry V600E): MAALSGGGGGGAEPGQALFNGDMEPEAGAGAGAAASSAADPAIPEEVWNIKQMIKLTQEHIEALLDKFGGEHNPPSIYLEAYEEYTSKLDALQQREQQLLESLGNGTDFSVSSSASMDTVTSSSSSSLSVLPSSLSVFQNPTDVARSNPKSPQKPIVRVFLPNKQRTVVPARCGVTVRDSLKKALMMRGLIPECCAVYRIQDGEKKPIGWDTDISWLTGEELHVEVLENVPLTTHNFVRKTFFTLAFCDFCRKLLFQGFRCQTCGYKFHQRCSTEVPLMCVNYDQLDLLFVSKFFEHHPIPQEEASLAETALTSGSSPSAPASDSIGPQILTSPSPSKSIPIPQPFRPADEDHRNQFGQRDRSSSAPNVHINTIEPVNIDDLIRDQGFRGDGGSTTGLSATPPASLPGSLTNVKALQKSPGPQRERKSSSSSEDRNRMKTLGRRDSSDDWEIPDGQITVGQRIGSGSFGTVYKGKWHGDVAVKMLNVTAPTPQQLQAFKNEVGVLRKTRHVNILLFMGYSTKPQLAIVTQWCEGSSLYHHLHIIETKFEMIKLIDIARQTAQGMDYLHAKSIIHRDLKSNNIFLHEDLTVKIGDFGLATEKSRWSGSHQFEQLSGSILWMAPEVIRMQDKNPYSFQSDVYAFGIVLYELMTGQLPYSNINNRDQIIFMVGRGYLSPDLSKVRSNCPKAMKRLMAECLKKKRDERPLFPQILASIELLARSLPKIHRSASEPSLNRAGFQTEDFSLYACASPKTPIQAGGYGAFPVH

SMILES | pIC50
Cc1n[nH]c2ncc(-c3nn(C(C)C)cc3-c3ccnc(NCCC#N)n3)cc12 [Example B-51, 3-({4-[1-isopropyl-3-(3-methyl-1H-pyrazolo[3,4-b]pyridin-5-yl)-1H-pyrazol-4-yl]pyrimidin-2-yl}amino)propanenitrile] | 7.96
Cc1[nH]c2ncc(-c3nn(C(C)C)cc3-c3ccnc(NC[C@H](C)O)n3)cc2c1Cl [Example B-97, (2S)-1-({4-[3-(3-chloro-2-methyl-1H-pyrrolo[2,3-b]pyridin-5-yl)-1-isopropyl-1H-pyrazol-4-yl]pyrimidin-2-yl}amino)propan-2-ol] | 6.76
C[C@H](O)CNc1nccc(-c2cn(CC(F)F)nc2-c2cnc3ccn(C)c3c2)n1 [Example B-35, (2S)-1-({4-[1-(2,2-difluoroethyl)-3-(1-methyl-1H-pyrrolo[3,2-b]pyridin-6-yl)-1H-pyrazol-4-yl]pyrimidin-2-yl}amino)propan-2-ol] | 6.71
C[C@H](O)CNc1nccc(-c2cn(C3CCOCC3)nc2-c2cnc3[nH]cc(Cl)c3c2)n1 [Example B-76, (2S)-1-({4-[3-(3-chloro-1H-pyrrolo[2,3-b]pyridin-5-yl)-1-(tetrahydro-2H-pyran-4-yl)-1H-pyrazol-4-yl]pyrimidin-2-yl}amino)propan-2-ol] | 7.92
COc1cc(-c2nn(C(C)C)cc2-c2ccnc(NC[C@H](C)O)n2)cnc1N [Example B-111, (2S)-1-({4-[3-(6-amino-5-methoxypyridin-3-yl)-1-isopropyl-1H-pyrazol-4-yl]pyrimidin-2-yl}amino)propan-2-ol] | 8.21
Cn1ccc2ncc(-c3nn(C(C)(C)CO)cc3-c3ccnc(NCCC#N)n3)cc21 [Example B-37, 3-({4-[1-(2-hydroxy-1,1-dimethylethyl)-3-(1-methyl-1H-pyrrolo[3,2-b]pyridin-6-yl)-1H-pyrazol-4-yl]pyrimidin-2-yl}amino)propanenitrile] | 7.36
N#CCCNc1nccc(-c2cn(CC(F)F)nc2-c2cnc3c(ccn3CCC#N)c2)n1 [Example D-15] | 6.97
Cc1n[nH]c2ncc(-c3nn(C(C)(C)C)cc3-c3ccnc(NCCC#N)n3)cc12 [Example B-71, 3-({4-[1-tert-butyl-3-(3-methyl-1H-pyrazolo[3,4-b]pyridin-5-yl)-1H-pyrazol-4-yl]pyrimidin-2-yl}amino)propanenitrile] | 8.55
COc1cncc(-c2nn(C(C)(C)CO)cc2-c2ccnc(NCCC#N)n2)c1 [Example B-49, 3-(4-(1-(1-hydroxy-2-methylpropan-2-yl)-3-(5-methoxypyridin-3-yl)-1H-pyrazol-4-yl)pyrimidin-2-ylamino)propanenitrile] | 7.65
CC(C)(CO)n1cc(-c2ccnc(NCCC#N)n2)c(-c2cnc3[nH]ccc3c2)n1 [Example B-25, 3-({4-[1-(2-hydroxy-1,1-dimethylethyl)-3-(1H-pyrrolo[2,3-b]pyridin-5-yl)-1H-pyrazol-4-yl]pyrimidin-2-yl}amino)propanenitrile] | 8.22
CC(=O)N1CCC(n2cc(-c3ccnc(NCC(F)F)n3)c(-c3cnc4[nH]cc(Cl)c4c3)n2)CC1 [Example B-67, 4-[1-(1-acetylpiperidin-4-yl)-3-(3-chloro-1H-pyrrolo[2,3-b]pyridin-5-yl)-1H-pyrazol-4-yl]-N-(2,2-difluoroethyl)-pyrimidin-2-amine] | 8.04

The next lines start with the values.

pIC50 | SMILES
7.26 | COc1cc(-c2nn(C(C)(C)C)cc2-c2ccncn2)cnc1N [Example F-3, 5-(1-tert-butyl-4-pyrimidin-4-yl-1H-pyrazol-3-yl)-3-methoxypyridin-2-amine]
7.62 | COc1cc(-c2nn(C(C)C)cc2-c2ccnc(NC3CC3)n2)cnc1N [Example B-16, 4-[3-(6-amino-5-methoxypyridin-3-yl)-1-isopropyl-1H-pyrazol-4-yl]-N-cyclopropylpyrimidin-2-amine]
9.08 | CC(C)(CO)n1cc(-c2ccnc(NCCC#N)n2)c(-c2cnc3[nH]cc(Cl)c3c2)n1 [Example E-5, 3-({4-[3-(3-chloro-1H-pyrrolo[2,3-b]pyridin-5-yl)-1-(2-hydroxy-1,1-dimethylethyl)-1H-pyrazol-4-yl]pyrimidin-2-yl}amino)-propanenitrile]
8.01 | Cc1c[nH]c2ncc(-c3nn(C(C)(C)CO)cc3-c3ccnc(N)n3)cc12 [Example B-58, 2-[4-(2-aminopyrimidin-4-yl)-3-(3-methyl-1H-pyrrolo[2,3-b]pyridin-5-yl)-1H-pyrazol-1-yl]-2-methylpropan-1-ol]
7.11 | COc1cc(-c2nn(C(F)F)cc2-c2ccnc(NC[C@H](C)O)n2)cnc1N [Example B-41, (2S)-1-({4-[3-(6-amino-5-methoxypyridin-3-yl)-1-(difluoromethyl)-1H-pyrazol-4-yl]pyrimidin-2-yl}amino)propan-2-ol]
7.79 | C[C@H](O)CNc1nccc(-c2cn(C3CCOC3)nc2-c2cnc3[nH]cc(Cl)c3c2)n1 (stereo partly drawn) [Example G-1, (2S)-1-(4-(3-(3-chloro-1H-pyrrolo[2,3-b]pyridin-5-yl)-1-(tetrahydrofuran-3-yl)-1H-pyrazol-4-yl)pyrimidin-2-ylamino)propan-2-ol]
7.62 | N#CCCNc1nccc(-c2cn([C@@H]3CCOC3)nc2-c2cnc3[nH]ccc3c2)n1 [Example B-75, 3-[(4-{3-(1H-pyrrolo[2,3-b]pyridin-5-yl)-1-[(3R)-tetrahydrofuran-3-yl]-1H-pyrazol-4-yl}pyrimidin-2-yl)amino]propanenitrile]
7.98 | OCCNc1nccc(-c2cn(CC(F)F)nc2-c2cnc3[nH]cc(Cl)c3c2)n1 [Example B-106, 2-({4-[3-(3-chloro-1H-pyrrolo[2,3-b]pyridin-5-yl)-1-(2,2-difluoroethyl)-1H-pyrazol-4-yl]pyrimidin-2-yl}amino)ethanol]
5.78 | N#CCCNc1nccc(-c2cn(CC(F)F)nc2-c2cnc3c(c2)CC(=O)N3)n1 [Example B-95, 3-(4-(1-(2,2-difluoroethyl)-3-(2-oxo-2,3-dihydro-1H-pyrrolo[2,3-b]pyridin-5-yl)-1H-pyrazol-4-yl)-pyrimidin-2-ylamino)propanenitrile]
8.71 | N#CCCNc1nccc(-c2cn(CC(F)F)nc2-c2cnc3[nH]cc(F)c3c2)n1 [Example B-21, 3-({4-[1-(2,2-difluoroethyl)-3-(3-fluoro-1H-pyrrolo[2,3-b]pyridin-5-yl)-1H-pyrazol-4-yl]pyrimidin-2-yl}amino)propanenitrile]
9.56 | Cc1c[nH]c2ncc(-c3nn(CC(F)F)cc3-c3ccnc(NCCC#N)n3)cc12 [Example B-93, 3-(4-(1-(2,2-difluoroethyl)-3-(3-methyl-1H-pyrrolo[2,3-b]pyridin-5-yl)-1H-pyrazol-4-yl)pyrimidin-2-ylamino)propanenitrile]
8.53 | COc1cc(-c2nn(C3CC3)cc2-c2ccnc(NCCC#N)n2)cnc1N [Example B-57, 3-({4-[3-(6-amino-5-methoxypyridin-3-yl)-1-cyclopropyl-1H-pyrazol-4-yl]pyrimidin-2-yl}amino)-propanenitrile]
9.00 | COc1nc(-c2nn(CC(F)F)cc2-c2ccnc(NCCC#N)n2)cnc1N [Example B-32, 3-({4-[3-(5-amino-6-methoxypyrazin-2-yl)-1-(2,2-difluoroethyl)-1H-pyrazol-4-yl]pyrimidin-2-yl}amino)propanenitrile]
7.51 | C[C@H](O)CNc1nccc(-c2cn([C@H]3C[C@H](F)C3)nc2-c2cnc3[nH]cc(Cl)c3c2)n1 [Example B-86, (S)-1-(4-(3-(3-chloro-1H-pyrrolo[2,3-b]pyridin-5-yl)-1-((1r,3r)-3-fluorocyclobutyl)-1H-pyrazol-4-yl)pyrimidin-2-ylamino)propan-2-ol]
5.88 | COc1cc(-c2n[nH]cc2-c2ccnc(N)n2)cnc1N [Example C-2, 4-[3-(6-amino-5-methoxypyridin-3-yl)-1H-pyrazol-4-yl]pyrimidin-2-amine]
7.06 | Cc1cc(-c2nn(C(C)(C)CO)cc2-c2ccnc(NCCC#N)n2)cnc1N [Example B-47, 3-({4-[3-(6-amino-5-methylpyridin-3-yl)-1-(2-hydroxy-1,1-dimethylethyl)-1H-pyrazol-4-yl]pyrimidin-2-yl}amino)-propanenitrile]
